Data published in patent publication EP1203584A1 (priority 2000, dated 2002).

Key:
Assay type in all cases: in vivo, Male Wistar rats
[1] = molecular target: T1, acetylcholinesterase (AChE) (Rattus norvegicus, UniProt P37136); assay: Activity of acetylcholinesterase in treated rats; details: choline alfoscerate alone, 150 mg/kg
T1 construct: Male Wistar rats were divided into 5 groups; from tissue; host or cells: Male Wistar rats

[2] = tested on: immunoreactivity of the neuronal acetylcholine in the neurones of the magnocellular nucleus basalis (MNB) and in the corpus striatum; assay: Immunoreactivity of neuronal acetylcholine in MNB and corpus striatum neurones
[3] = tested on: levels of acetylcholine in the cerebral cortex (frontal area), in the hippocampus and in the corpus striatum; assay: Levels of acetylcholine in rat brain areas after 1 week of treatment

T1 sequence (P37136 32-614): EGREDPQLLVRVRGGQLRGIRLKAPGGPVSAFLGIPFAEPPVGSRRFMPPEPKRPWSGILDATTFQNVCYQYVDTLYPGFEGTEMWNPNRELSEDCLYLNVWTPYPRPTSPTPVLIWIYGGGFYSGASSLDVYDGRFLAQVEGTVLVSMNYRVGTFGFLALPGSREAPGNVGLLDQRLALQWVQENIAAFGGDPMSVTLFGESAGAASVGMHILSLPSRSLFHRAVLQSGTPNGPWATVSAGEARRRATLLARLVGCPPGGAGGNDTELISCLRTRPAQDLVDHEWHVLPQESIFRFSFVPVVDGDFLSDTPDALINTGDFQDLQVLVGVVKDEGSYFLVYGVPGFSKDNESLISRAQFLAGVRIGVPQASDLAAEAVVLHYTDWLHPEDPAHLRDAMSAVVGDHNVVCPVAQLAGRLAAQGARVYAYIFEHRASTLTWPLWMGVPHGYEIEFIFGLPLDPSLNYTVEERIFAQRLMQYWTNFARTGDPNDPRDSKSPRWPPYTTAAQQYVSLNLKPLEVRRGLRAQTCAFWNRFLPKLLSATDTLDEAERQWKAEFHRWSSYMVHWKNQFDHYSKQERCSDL

C[N+](C)(C)CCOP(=O)([O-])OC[C@H](O)CO [choline alfoscerate]
effect on the activity of the AChE [1]: did not show any effect
immunoreactivity of the acetylcholine ([2]; choline alfoscerate alone, 150 mg/kg, MNB neurones and interneurones of the corpus striatum, more marked in the MNB): increased in a similar fashion
release of acetylcholine ([3]; 150 mg/kg choline alfoscerate, hippocampus and corpus striatum, reason for the choice of dose): significantly increases
increase in the levels of acetylcholine, compared with rivastigmine ([3]; choline alfoscerate alone versus rivastigmine 2.5 mg/kg, frontal cerebral cortex, hippocampus, corpus striatum): to the same extent as the dosage of the AchE inhibitor, rivastigmine
increased the levels of acetylcholine ([3]; choline alfoscerate alone, 150 mg/kg intraperitoneal, 1 week): approximately 20%

CCN(C)C(=O)Oc1cccc([C@H](C)N(C)C)c1 [rivastigmine]
immunoreactivity of the acetylcholine ([2]; rat, in vivo, 2.5 mg/kg): increased in a similar fashion
